Source: PubChem BioAssay (NCI)
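Protocol summary: plate cells (96-well), add compound at 5 concentrations, incubate 48 h, interpolate endpoints linearly. At the GI50, growth is halved. The concentration for full growth arrest is given as TGI.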

Assays:
Test in all cases: inhibition of tumour cell growth, NCI panel, 48 h
OVCAR-3 ovarian = system: OVCAR-3 ovarian
786-0 renal = system: 786-0 renal
RXF 393 renal = system: RXF 393 renal
PC-3 prostate = system: PC-3 prostate
A549 NSCLC = system: A549 NSCLC
HCC-2998 colon = system: HCC-2998 colon
MDA-MB-435 = system: MDA-MB-435
SK-OV-3 ovarian = system: SK-OV-3 ovarian
UO-31 renal = system: UO-31 renal
BT-549 breast = system: BT-549 breast
DU-145 prostate = system: DU-145 prostate
KM12 colon = system: KM12 colon
A498 renal = system: A498 renal
NCI-H522 lung = system: NCI-H522 lung
NCI-H226 lung = system: NCI-H226 lung
MOLT-4 leukemia = system: MOLT-4 leukemia
HOP-62 NSCLC = system: HOP-62 NSCLC
SW-620 colon = system: SW-620 colon
U251 CNS = system: U251 CNS
SF-268 CNS = system: SF-268 CNS
SF-539 CNS = system: SF-539 CNS
HS 578T breast = system: HS 578T breast
SN12C renal = system: SN12C renal
NCI-H460 lung = system: NCI-H460 lung
SNB-19 CNS = system: SNB-19 CNS
HL-60(TB) leukemia = system: HL-60(TB) leukemia
SF-295 CNS = system: SF-295 CNS
HT29 colon = system: HT29 colon
RPMI-8226 leukemia = system: RPMI-8226 leukemia
MDA-MB-231 breast = system: MDA-MB-231 breast
HCT-15 colon = system: HCT-15 colon
SK-MEL-2 melanoma = system: SK-MEL-2 melanoma
MDA-MB-468 breast = system: MDA-MB-468 breast
COLO 205 colon = system: COLO 205 colon
TK-10 renal = system: TK-10 renal
UACC-62 melanoma = system: UACC-62 melanoma
K-562 leukemia = system: K-562 leukemia
UACC-257 melanoma = system: UACC-257 melanoma
OVCAR-8 ovarian = system: OVCAR-8 ovarian
MCF7 breast = system: MCF7 breast
SK-MEL-5 melanoma = system: SK-MEL-5 melanoma
ACHN renal = system: ACHN renal
CAKI-1 renal = system: CAKI-1 renal
MALME-3M melanoma = system: MALME-3M melanoma
OVCAR-5 ovarian = system: OVCAR-5 ovarian
T-47D breast = system: T-47D breast
SR leukemia = system: SR leukemia
HCT-116 colon = system: HCT-116 colon
IGROV1 ovarian = system: IGROV1 ovarian
OVCAR-4 ovarian = system: OVCAR-4 ovarian
NCI-H23 lung = system: NCI-H23 lung
HOP-92 NSCLC = system: HOP-92 NSCLC
M14 melanoma = system: M14 melanoma
CCRF-CEM leukemia = system: CCRF-CEM leukemia
EKVX NSCLC = system: EKVX NSCLC
LOX IMVI melanoma = system: LOX IMVI melanoma
SK-MEL-28 melanoma = system: SK-MEL-28 melanoma

COc1ccc2[nH]c(=O)cc(-n3ncc(C(=O)/C=C/c4cc(OC)c(OC)c(OC)c4)c3C)c2c1
GI50 (OVCAR-3 ovarian): 4.04 µM
TGI (OVCAR-3 ovarian): 13.9 µM
GI50 (786-0 renal): 11 µM
TGI (786-0 renal): 25.3 µM
GI50 (RXF 393 renal): 2.79 µM
TGI (RXF 393 renal): 9.94 µM
GI50 (PC-3 prostate): 10 µM
TGI (PC-3 prostate): 38 µM
GI50 (A549 NSCLC): 11.5 µM
TGI (A549 NSCLC): 52.2 µM
GI50 (HCC-2998 colon): 11.5 µM
TGI (HCC-2998 colon): 24 µM
GI50 (MDA-MB-435): 3.81 µM
TGI (MDA-MB-435): 14.1 µM
GI50 (SK-OV-3 ovarian): 12 µM
TGI (SK-OV-3 ovarian): 36.5 µM
GI50 (UO-31 renal): 5.62 µM
TGI (UO-31 renal): 18.9 µM
GI50 (BT-549 breast): 3.47 µM
TGI (BT-549 breast): 13.8 µM
GI50 (DU-145 prostate): 3.29 µM
TGI (DU-145 prostate): 10.8 µM
GI50 (KM12 colon): 13.2 µM
TGI (KM12 colon): 30.1 µM
GI50 (A498 renal): 19.1 µM
TGI (A498 renal): 36.3 µM
GI50 (NCI-H522 lung): 3.6 µM
TGI (NCI-H522 lung): 13.3 µM
GI50 (NCI-H226 lung): 11.1 µM
TGI (NCI-H226 lung): 25.4 µM
GI50 (MOLT-4 leukemia): 3.81 µM
TGI (MOLT-4 leukemia): 64.9 µM
GI50 (HOP-62 NSCLC): 11.2 µM
TGI (HOP-62 NSCLC): 26.4 µM
GI50 (SW-620 colon): 3.54 µM
TGI (SW-620 colon): 13.5 µM
GI50 (U251 CNS): 3.91 µM
TGI (U251 CNS): 18.5 µM
GI50 (SF-268 CNS): 10.4 µM
TGI (SF-268 CNS): 34.8 µM
GI50 (SF-539 CNS): 2.68 µM
TGI (SF-539 CNS): 9.09 µM
GI50 (HS 578T breast): 8.96 µM
TGI (HS 578T breast): 95.2 µM
GI50 (SN12C renal): 3.59 µM
TGI (SN12C renal): 15.6 µM
GI50 (NCI-H460 lung): 3.28 µM
TGI (NCI-H460 lung): 13.6 µM
GI50 (SNB-19 CNS): 11.2 µM
TGI (SNB-19 CNS): 23.4 µM
GI50 (HL-60(TB) leukemia): 3.88 µM
TGI (HL-60(TB) leukemia): 29 µM
GI50 (SF-295 CNS): 4.64 µM
TGI (SF-295 CNS): 16.6 µM
GI50 (HT29 colon): 3.15 µM
TGI (HT29 colon): 11 µM
GI50 (RPMI-8226 leukemia): 2.91 µM
TGI (RPMI-8226 leukemia): 15 µM
GI50 (MDA-MB-231 breast): 5.4 µM
TGI (MDA-MB-231 breast): 18.6 µM
GI50 (HCT-15 colon): 3.57 µM
TGI (HCT-15 colon): 15.7 µM
GI50 (SK-MEL-2 melanoma): 6.06 µM
TGI (SK-MEL-2 melanoma): 18.7 µM
GI50 (MDA-MB-468 breast): 2.5 µM
TGI (MDA-MB-468 breast): 7.3 µM
GI50 (COLO 205 colon): 4.94 µM
TGI (COLO 205 colon): 17.2 µM
GI50 (TK-10 renal): 8.02 µM
TGI (TK-10 renal): 20.9 µM
GI50 (UACC-62 melanoma): 7.17 µM
TGI (UACC-62 melanoma): 20.2 µM
GI50 (K-562 leukemia): 3.24 µM
TGI (K-562 leukemia): > 100 µM
GI50 (UACC-257 melanoma): 12.5 µM
TGI (UACC-257 melanoma): 26.6 µM
GI50 (OVCAR-8 ovarian): 3.46 µM
TGI (OVCAR-8 ovarian): 12.3 µM
GI50 (MCF7 breast): 3.19 µM
TGI (MCF7 breast): 11.9 µM
GI50 (SK-MEL-5 melanoma): 10.3 µM
TGI (SK-MEL-5 melanoma): 22 µM
GI50 (ACHN renal): 4.33 µM
TGI (ACHN renal): 16.6 µM
GI50 (CAKI-1 renal): 5.23 µM
TGI (CAKI-1 renal): 20 µM
GI50 (MALME-3M melanoma): 6.82 µM
TGI (MALME-3M melanoma): 19.9 µM
GI50 (OVCAR-5 ovarian): 3.99 µM
TGI (OVCAR-5 ovarian): 15.1 µM
GI50 (T-47D breast): 6.59 µM
TGI (T-47D breast): 43.6 µM
GI50 (SR leukemia): 4.2 µM
TGI (SR leukemia): > 100 µM
GI50 (HCT-116 colon): 7.41 µM
TGI (HCT-116 colon): 21.7 µM
GI50 (IGROV1 ovarian): 3.46 µM
TGI (IGROV1 ovarian): 13.5 µM
GI50 (OVCAR-4 ovarian): 12.4 µM
TGI (OVCAR-4 ovarian): 42.9 µM
GI50 (NCI-H23 lung): 3.5 µM
TGI (NCI-H23 lung): 13 µM
GI50 (HOP-92 NSCLC): 11.4 µM
TGI (HOP-92 NSCLC): 34.9 µM
GI50 (M14 melanoma): 8.64 µM
TGI (M14 melanoma): 29.9 µM
GI50 (CCRF-CEM leukemia): 2.76 µM
TGI (CCRF-CEM leukemia): 16.8 µM
GI50 (EKVX NSCLC): 5.16 µM
TGI (EKVX NSCLC): 20.1 µM
GI50 (LOX IMVI melanoma): 2.75 µM
TGI (LOX IMVI melanoma): 9.83 µM
GI50 (SK-MEL-28 melanoma): 5.26 µM
TGI (SK-MEL-28 melanoma): 17.4 µM
